# Target: T1, P2X purinoceptor 3 (Homo sapiens, UniProt P56373)
# T1 sequence (P56373 whole entry): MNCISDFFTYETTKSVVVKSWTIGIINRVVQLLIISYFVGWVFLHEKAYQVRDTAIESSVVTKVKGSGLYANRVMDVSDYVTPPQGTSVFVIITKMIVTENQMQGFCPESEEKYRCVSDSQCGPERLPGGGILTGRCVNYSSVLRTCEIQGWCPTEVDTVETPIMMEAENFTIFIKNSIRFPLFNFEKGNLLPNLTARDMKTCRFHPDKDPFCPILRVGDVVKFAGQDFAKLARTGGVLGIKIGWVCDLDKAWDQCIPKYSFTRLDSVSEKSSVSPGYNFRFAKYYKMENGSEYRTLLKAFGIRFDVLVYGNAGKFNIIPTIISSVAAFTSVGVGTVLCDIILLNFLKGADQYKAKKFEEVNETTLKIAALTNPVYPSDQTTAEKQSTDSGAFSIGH
# Experiment: Evaluation of In Vitro Biological Activity
# Description: Each well was added with 10 μL of test compound (which was dissolved in DMSO at a concentration of 10 mM and serially diluted with buffer) or vehicle, and then was left to equilibrate for 30 min at room temperature.
row,SMILES,IC50 [nM]
1,"COC(=O)N1CCO[C@@H](Cc2c(-c3c(F)cc(-n4cnnn4)cc3F)nc3cc(C)ccn23)C1 [US20240034729, Compound 58]",< 10
2,"COC(=O)N1CCO[C@@H](Cc2c(-c3c(F)cc(-c4ncccn4)cc3F)nc3cc(C)ccn23)C1 [US20240034729, Compound 18]",< 1000
3,"COC(=O)N1CCO[C@@H](Cc2c(-c3c(F)cc(-c4nc(C5(C(N)=O)CC5)c[nH]4)cc3F)nc3cc(C)ccn23)C1 [US20240034729, Compound 133]",< 100
4,"COC(=O)N1CCO[C@@H](Cc2c(-c3c(F)cc(-c4nc(C5(C#N)CC5)c[nH]4)cc3F)nc3cc(C)ccn23)C1 [US20240034729, Compound 144]",< 100
5,"CCC(=O)c1ccn(-c2cc(F)c(-c3nc4cc(C)ccn4c3C[C@H]3CN(C(=O)OC)CCO3)c(F)c2)n1 [US20240034729, Compound 164]",< 100
6,"COC(=O)N1CCO[C@@H](Cc2c(-c3c(F)cc(NC(=O)C4(C#N)CC4)cc3F)nc3cc(C)ccn23)C1 [US20240034729, Compound 89]",< 100
7,"COC(=O)N1CCO[C@@H](Cc2c(-c3c(F)cc(-c4nc(C5(C(=O)O)CC5)c[nH]4)cc3F)nc3cc(C)ccn23)C1 [US20240034729, Compound 59]",< 10
8,"COC(=O)N1CCO[C@@H](Cc2c(-c3c(F)cc(C#N)cc3F)nc3cc(C)ccn23)C1 [US20240034729, Compound 6]",< 1000
9,"COC(=O)N1CCO[C@@H](Cc2c(-c3c(F)cc(NC(=O)C4(C(=O)OC)CC4)cc3F)nc3cc(C)ccn23)C1 [US20240034729, Compound 97]",< 1000
10,"CCC(=O)N1CCO[C@@H](Cc2c(-c3c(F)cc(-c4ncc[nH]4)cc3F)nc3cc(C)ccn23)C1 [US20240034729, Compound 52]",< 10
11,"COC(=O)N1CCO[C@@H](Cc2c(-c3c(F)cc(-c4nc(C(C)(C)O)co4)cc3F)nc3cc(C)ccn23)C1 [US20240034729, Compound 119]",< 100
12,"COC(=O)N1CCO[C@@H](Cc2c(-c3c(F)cc(N4CC=CC4=O)cc3F)nc3cc(C)ccn23)C1 [US20240034729, Compound 169]",< 10
13,"COC(=O)N1CCO[C@@H](Cc2c(-c3c(F)cc(-c4nn[nH]n4)cc3F)nc3cc(C)ccn23)C1 [US20240034729, Compound 104]",< 1000
14,"COC(=O)N1CCO[C@@H](Cc2c(-c3c(F)cc(-n4cnc(C(N)=O)c4)cc3F)nc3cc(C)ccn23)C1 [US20240034729, Compound 110]",< 100
15,"COC(=O)N1CCO[C@@H](Cc2c(-c3c(F)cc(-c4ccc(C(N)=O)cn4)cc3F)nc3cc(C)ccn23)C1 [US20240034729, Compound 146]",< 1000
16,"COC(=O)N1CCO[C@@H](Cc2c(-c3c(F)cc(CC(N)=O)cc3F)nc3cc(C)ccn23)C1 [US20240034729, Compound 63]",< 1000
17,"COC(=O)N1CCO[C@@H](Cc2c(-c3c(F)cc(NC(=O)/C=C/C(N)=O)cc3F)nc3cc(C)ccn23)C1 [US20240034729, Compound 29]",< 10
18,"COC(=O)N1CCO[C@@H](Cc2c(-c3c(F)cc(NC4CCC(=O)C4)cc3F)nc3cc(C)ccn23)C1 (some centres undefined) [US20240034729, Compound 79]",< 100
19,"COC(=O)N1CCO[C@@H](Cc2c(-c3c(F)cc(-c4ccc(O)cn4)cc3F)nc3cc(C)ccn23)C1 [US20240034729, Compound 147]",< 100

# Reference: BindingDB's records for patent US20240034729 (Wuhan Ll Science and Technology Development, 2024)
